Results taken from patent US20260060252A1, “HERBICIDAL COMBINATIONS” (UPL LTD, priority 2018, published 2026).

What was measured:
Format in all cases: in vivo
Conditions in all cases: clomazone 32, metribuzin 12, sulfentrazone 7.7 Fl oz/A, combination 32 + 7.7 + 12 Fl oz/A
[1] = tested on: Tall morning glory; test: % control of Tall morning glory in Soybean
[2] = tested on: Palmer amaranth; test: % control of Palmer amaranth in Soybean
[3] = tested on: Greenfox tail; test: % control of Greenfox tail in Soybean

Compound	% control of Tall morning glory in Soybean, Actual ([1]; 14 DAA)	% control of Tall morning glory in Soybean, Actual ([1]; 28 DAA)	% control of Tall morning glory in Soybean, Actual ([1]; 45 DAA)	% control of Palmer amaranth in Soybean, Actual ([2]; 14 DAA)	% control of Palmer amaranth in Soybean, Actual ([2]; 28 DAA)	% control of Palmer amaranth in Soybean, Actual ([2]; 45 DAA)	% control of Greenfox tail in Soybean, Actual ([3]; 14 DAA)	% control of Greenfox tail in Soybean, Actual ([3]; 28 DAA)	% control of Greenfox tail in Soybean, Actual ([3]; 45 DAA)
CC1(C)CON(Cc2ccccc2Cl)C1=O [Clomazone]	53.3%	30%	13%	60%	43.3%	16.4%	85%	56.7%	32.9%
CSc1nnc(C(C)(C)C)c(=O)n1N [Metribuzin, 4-amino-6-(1,1-dimethylethyl)-3-(methylthio)-1,2,4-triazin-5 (4H)-one]	53.3%	39.6%	16.4%	65%	50%	36.1%	63.4%	39.9%	22.7%
Cc1nn(-c2cc(NS(C)(=O)=O)c(Cl)cc2Cl)c(=O)n1C(F)F [Sulfentrazone, N-[2,4-dichloro-5-[4-(difluoromethyl)-4,5-dihydro-3-methyl-5-oxo-1H-1,2,4-triazol-1-yl]phenyl]-methane sulfonamide]	66.7%	42.8%	22.5%	80%	62%	39.4%	68.5%	46.6%	29.7%
